For orientation: half-life means the time in which the quantity being followed falls by half. The low end stands for rapid decline, the high end for slow decline. One may read the bioavailability as dose-corrected exposure relative to a reference, in per cent. Low readings indicate little systemic uptake, high ones much systemic uptake.

Here are results for one compound from paper PMC4559881 (Molecular Neurodegeneration, 2015).

Data set [1] is described as follows: Pharmacokinetics after i.v. and oral application, rat.
Protocol: (§1) Pharmacokinetic studies used male Sprague Dawley rats, C57BL6 mice and Beagle dogs, obtained from Charles River (France, rodents) and Marshall (Italy, dogs). […] Blood was collected i.v., by sublingual bleeding or at sacrifice whereas a serial blood sampling allowed obtaining individual PK profiles in these species. Blood samples were taken between 5 min (intravenous) and 15 min (oral) up to 24 h (mice), 48 h (rat) and 408 h (dog).
(§2) The absorption and disposition parameters were estimated by a non-compartmental analysis of the mean blood concentration (n = 3 mice) or individual concentration (rats, dogs) versus time profile after oral and intravenous administration.
Data set [2] is described as follows: Pharmacokinetics after i.v. and oral application, beagle dog.
Protocol: as §1, §2
In data set [3] the test system is Aβ40. As to the kind of experiment: Pre-plaque APP51/16 mice: brain Aβ40 after single or 4-day oral dosing. In kind it is in vivo, mouse. The method, then: This strain of transgenic mice was selected since it resembles the situation in sporadic human AD, where no APP mutation is present. […] Next, we dosed the compound p.o. once daily for 4 days at 2 doses to pre-plaque APP51/16 mice (age: 8 months) in order to achieve steady state exposure, and measured the Aβ40 reduction 24 h after the last dose. […] In order to achieve a >50 % reduction of brain Aβ over a 24 h period in mice we selected this dose for a chronic study.
Frozen rodent forebrains were homogenized in 9 volumes of ice-cold Tris-buffered saline (pH 7.4) containing Complete protease inhibitor cocktail (Roche Diagnostics, Penzberg, Germany) using a Sonifier 450 (Branson) and stored in aliquots at -80 °C. Triton X-100 soluble Aβ was extracted by mixing 50 μl 2 % Triton X-100 with 50 μl homogenate, incubating for 15 min on ice with vortexing, followed by ultracentrifugation at 100000xg for 15 min. The clear supernatant was diluted to a final forebrain dilution of 1:100 and used for analysis. For the extraction of insoluble amyloid peptides, 50 μl forebrain homogenate was mixed with 117 μl of 100 % formic acid and stored on ice for 15 min with vortexing. Samples were neutralized with 950 μl 1 M Tris base, containing Complete protease inhibitor cocktail (Roche, Basle, Switzerland) and stored overnight at room temperature. The supernatant after 15 min centrifugation at 14000 rpm was used for analysis.
Aβ38, 40 and 42 were determined using the electro-chemiluminescence immuno assay kits from Meso Scale Discovery (Rockville, MD, USA) in either singlet or triplex format. Samples and standards were prepared according to the manufactures protocols. […] Soluble APPα and sAPPβ from APP51/16 mice were determined from the 100000xg supernatant and analyzed with Meso Scale Discovery commercial kits. C-terminal fragments C83 and C99 were determined from Western blots. […] After transfer to Immobilon P membranes (Bio-Rad Bedford MA USA), bands were probed with APP C8 antibody (recognizing the C-terminus of APP) and detected with goat anti-mouse IgG Fab fragment AlexaFluor680 (Invitrogen). […]

A short description of data set [4]: Chronic 6-week treatment of APP51/16 mice: NB-360 blood exposure. Conditions: female, APP51/16 (C57BL/6 background), mouse, po, 100 μmol/kg.
Protocol: Brain samples were homogenized with 2 mM KH2PO4 buffer (approx. 1/2, w/v). […] The LLOQ ranged between 0.4 and 2 ng/mL in blood and 1.2 ng/g and 6 ng/g in brain.
Rat studies used male Charles River Sprague-Dawley rats of approx. 300 g body weight. Female transgenic APP51/16 mice (C57BL/6 background strain) were bred in-house. APP51/16 mice express human wild-type APP751 under the control of a Thy-1 expression cassette in brain neurons, and are characterized by mostly cortical, but few vascular amyloid-β deposits. […] Dosing was per os in a dose volume of 10 ml/kg for mice and 5 ml/kg for rats. […] Rodents were deeply anesthetized for CSF sampling from the cisterna magna, accessed through the exposed atlanto-occipital membrane. CSF was harvested into protein lo-bind Eppendorf tubes and frozen on dry ice. Animals were decapitated while anesthetized and blood and brain samples collected. Brains were briefly rinsed in PBS, quickly wet-dissected and samples frozen on a metal plate precooled on dry ice. All samples were stored at -80 ° C until analysis. The dog study was carried out at Charles River Laboratories, Canada. Male dogs were used with n = 4 per group. A cannula with an access port was implanted under anesthesia, to allow serial CSF sampling from the lateral ventricle. Dogs were allowed to recover from the surgery for 2 weeks before the start of the experiment.
The mark [5] stands for this setting: male, Sprague Dawley, blood, iv, 2 umol/kg.

Take `Cc1cc(C#N)cnc1C(=O)Nc1ccc(F)c([C@]2(C)CO[C@@](C)(C(F)(F)F)C(N)=N2)c1` [NB-360]: the “Vol. of Distribution” value in data set [1] (2 μmol/kg i.v.) came to 10.2 L/kg; in data set [2] (2 μmol/kg i.v.) it was 0.9 L/kg. Further, the clearance in data set [1] (setting [5]) worked out at 52 mL/min/kg; in data set [2] (Beagle, blood, iv, 2 umol/kg), 0.4 mL/min/kg. Also, the half-life in data set [1] (setting [5]) was 2.7 h; in data set [2] (Beagle, blood, iv, 2 umol/kg) it was 36.2 h. Besides, the bioavailability was found to be 92% in data set [1] (male, Sprague Dawley, blood, po, 6 umol/kg) and 62% in data set [2] (Beagle, blood, po, 2 umol/kg). For the same compound, the “lowering of TX-100 soluble brain Aβ40” value in data set [3] (pre-plaque APP51/16 mice (3-5 months), 30 μmol/kg single oral dose, 4 h) is 79.6%. For the same compound, the “reduction of forebrain Aβ” value in data set [3] (pre-plaque APP51/16 mice (8 months), 30 μmol/kg/d p.o. 4 days, 24 h after last dose) is given as 15.1%. Moreover, the “Aβ40 reduction in forebrain” value in data set [3] (pre-plaque APP51/16 mice (8 months), 100 μmol/kg/d p.o. 4 days, 24 h after last dose) is given as 52.1%. Also, the concentration at 4 h in data set [4] stood at 3200 nM. Moreover, the concentration at 24 h in data set [4] was 130 nM.
